In article PMC6196658, “Activity of Thioallyl Compounds From Garlic Against Giardia duodenalis Trophozoites and in Experimental Giardiasis” (Frontiers in Cellular and Infection Microbiology, 2018):
Converted amounts (≈) assume the structure as drawn. “And” between values parts separate entries of the source, which are not always exact repeats. Equal values may be shown once. Read-outs that look alike come from different tables or passages of the source.

Experiments:
[1] = tested on: G. duodenalis trophozoites; assay: Efficacy in experimental giardiasis; details: for cure rate (gerbils without trophozoites): read day 13
Description: Eighty male Mongolian gerbils (M. unguiculatus) 6–10 weeks old, weighted 45–60 g and sentinel-checked gerbils free of intestinal parasites were kept in individual cages and distributed in 12 groups of 6 animals per treatment and experimental infections were performed as described elsewhere (Argüello-García and Ortega-Pierres, [1997]). In brief, animals were inoculated intragastrically with 1 × 10^6 G. duodenalis trophozoites in 500 μl sterile PBS per os using gavage under ether anesthesia. Control animals received 500 μl sterile PBS each. […] As additional control, one group of animals received MTZ (38.4 mg/kg at single or double dose). […] Treatment efficacy was evaluated by determining the presence or absence of trophozoites in intestinal contents of control and treated gerbils at day 13 post-infection. For this, gerbils were euthanized by an intraperitoneal injection of pentobarbital at a dose of 150 mg/kg to minimize stress and to reduce suffering, then a 10 cm-long section of intestine (from stomach ending, equivalent to nearly the entire small intestine) was excised after laparotomy, and it was longitudinally opened and rinsed in 20 mL PBS at 4°C for 20 min under shaking (720 rpm, Heidolph^TM rotatory shaker) to determine trophozoites number after parasite detachment from microvilli. Supernatant was collected and centrifuged at 750 × g for 10 min at 4°C, cell pellet was resuspended in 1 mL PBS and trophozoites were counted using a haemocytometer. Gerbils were scored as cured if no trophozoites were recovered from infected animals.

[2] = Storage stability of allicin; details: 1.5% (w/v) in water, 1 mL aliquots at −70°C
Description: For stabilization and storage of ALC, the oily product was resuspended in water at 1.5% (w/v) and kept in 1 mL aliquots at −70°C until analyzed and used.

[3] = tested on: thiol groups exposed in G. duodenalis trophozoite proteins; assay: Thiol-modifying activity (inhibition of thiol-DTNB complexes); assay type: biochemical, Giardia duodenalis; details: 100 μg soluble trophozoite protein, 10 min 37°C, DTNB 412 nm
Description: The technique reported by Lawson and Wang ([1993]) was followed. In these assays trophozoites were collected from 60 mL flasks, washed 3 times with PBS and resuspended in 500 μL PBS containing a 1:12.5 dilution of a commercial mixture of protease inhibitors (Complete^TM, Roche Diagnostics GmbH, Indianapolis, IN, USA) and lysed by sonication at 12 microns/60% amplitude (Ultrasonic apparatus Sonic UVX1130PB). Soluble proteins were recovered by centrifugation at 15,400 × g for 30 min at 4°C and protein concentration was determined by the Bradford technique. These samples were adjusted to a concentration of 1 mg/mL. Reactions were carried out in 1.5 mL microcentrifuge tubes with a mixture of 100 μg protein (100 μL) and NaH2PO4 45 mM pH 7.0 mM (800 μL) to which increasing volumes of TACs stocks or a positive control with the thiol derivatizing agent MMTS prepared at 50 mM in the same buffer, were added and total volume was adjusted to 1 mL. After incubation for 10 min at 37°C, 100 μL of 1.5 mM dithionitrobenzoic acid (DTNB, Ellman's reagent) were added to each tube and following incubation for 10 min at room temperature the absorbances (yellow solutions) were recorded at 412 nm (Smart Spec 3000^TM, Bio-Rad, Hercules, CA, USA). A calibration curve was obtained using increasing volumes (0–100 μL) of 15.5 mM cysteine instead protein extracts and the maximal blocking concentration (MBC) corresponding to a complete absence of thiol-DTNB complexes produced by TACs were calculated using the least-square method (Microsoft Excel^TM).

Plasmodium berghei = tested on: Plasmodium berghei; parameters: method as in Coppi et al., 2006; details: mice, ref Coppi et al., 2006, cited from earlier work
[4] = tested on: G. duodenalis trophozoites; assay: In vitro susceptibility, subculture in liquid medium (SCLM); assay type: cell-based, Giardia duodenalis (WB strain); details: SCLM; for IC50: Giardia duodenalis
[5] = tested on: G. duodenalis trophozoites; assay: Cell cycle stages, PI flow cytometry; assay type: cell-based, Giardia duodenalis; details: 24 h
Description: The identification and quantitative determinations of trophozoites were carried out as follows: (a) apoptosis or necrosis were determined using anti-annexin V-fluorescein isothiocyanate (FITC) antibodies or PI as respective markers, (b) oxidative stress was determined by formation of reactive oxygen species (ROS) with the fluorescent ROS-complexing agent 5-(and 6)-carboxy 2′7′-dichlorodihydrofluorescein diacetate (H2DCFDA), and (c) determination of trophozoites cell cycle stages (G1, S, G2, and G2/M) after exposure to ALC or to a control drug (albendazole, ABZ) was carried out as previously described (Martínez-Espinosa et al., [2015]). In all these assays 20,000 cells per sample were recorded.

[6] = tested on: G. duodenalis trophozoites; assay: In vitro susceptibility, direct cell count (DCC); assay type: cell-based, Giardia duodenalis (WB strain); details: 24 h exposure
Eimeria tenella = tested on: Eimeria tenella; parameters: method as in Alnassan et al., 2015; details: ref Alnassan et al., 2015; cited from earlier work
[7] = tested on: cysteine protease activities in trophozoite lysates; assay: Proteolytic activity assay (gelatin zymogram); assay type: biochemical, Giardia duodenalis; details: 3.5 mM; bands 110, 60, 75 and 25 kDa
Description: Trophozoite lysates were prepared as mentioned above except that cell lysis was carried out by sonication in 1.5 mL microcentrifuge tubes under ice bath using eight 15-s pulses at 80% amplitude with resting periods of 30 s (Ultrasonic Processor mod. CV19). Protein concentration was adjusted to 2 mg/mL and aliquoted in 25 μL fractions that were incubated for 30 min room temperature with 2–5 μL stock solutions of representative TACs (ALC, DADS, and AM). The reaction mixtures were diluted in Laemmli's sample buffer, loaded in wells of 10% acrylamide-02% gelatin slab gels and these were electrophoretically analyzed using 80 V/4°C. After this, gels were incubated in a solution of triton X-100 2.5% (v/v) in water for 1 h and washed 3 times with distilled water. Bands with proteolytic activity were detected as follows: gels were incubated in acetate buffer pH 5.5 with 1 mM DTT for 16 h at 37°C under constant stirring, washed 3 times with distilled water and stained with Coomassie blue (BioRad) for 2 h at 37°C under constant stirring. Finally, gels were washed with distilled water and incubated with a solution of 5% acetic acid/40% methanol (v/v). Gel images were documented with a UVP High Performance Ultraviolet Transilluminator and software Launch DocItLS.

[8] = tested on: G. duodenalis trophozoites; assay: In vitro susceptibility, FDA-PI staining; assay type: cell-based, Giardia duodenalis (WB strain); details: 24 h exposure
Entamoeba histolytica = tested on: Entamoeba histolytica; parameters: method as in Ankri et al., 1997; details: ref Ankri et al., 1997; cited from earlier work
giardipain-1 = target: T1, giardipain-1 (Giardia intestinalis, UniProt P92132); assay: Inhibition of cytolytic effect of giardipain-1 on IEC6 cell monolayers; assay type: cell-based, Giardia duodenalis; details: 5.3 mM pre-incubated 30 min with giardipain-1 16 μg/mL; 100 min
T1 construct: the 25 kDa band that contains the processed form of the cathepsin B-like protease named as giardipain-1; endogenous in cells
Description: Additional assays were carried out using the MLCs of TACs (without giardipain-1) previously obtained in trophozoite cultures to monitor their toxicity. These solutions were added to monolayers of the intestinal cell line IEC6 grown in 1 cm^2-microwells and incubated for 100 min at 37°C. After incubation, supernatants were discarded and monolayers were fixed with 2% paraformaldehyde in PBS. The effects of TACs and E64 on the cytolytic effect of giardipain-1 were evaluated by light microscopy using Nomarski optics (Axioskop 40, Zeiss).

[9] = mouse, no reference given; cited from earlier work

T1 sequence (P92132 75-300): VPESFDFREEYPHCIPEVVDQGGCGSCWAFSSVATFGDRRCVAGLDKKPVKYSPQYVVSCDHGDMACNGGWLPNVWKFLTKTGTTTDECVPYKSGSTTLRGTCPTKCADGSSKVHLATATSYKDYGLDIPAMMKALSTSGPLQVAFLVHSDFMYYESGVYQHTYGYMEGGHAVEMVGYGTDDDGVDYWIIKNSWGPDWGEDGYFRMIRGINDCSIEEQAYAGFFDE

## C=CCS[S+]([O-])CC=C (centres unmarked) [ALC, diallyl thiosulfinate]
[1]; 35 mg/kg single dose intragastric day 10 p.i.
  cure rate (gerbils without trophozoites): 3 out of 6
[1]; 70 mg/kg single dose intragastric day 10 p.i.
  cure rate (gerbils without trophozoites): 5 out of 6 and 5/6
[1]; 138 mg/kg single dose intragastric day 10 p.i.
  cure rate (gerbils without trophozoites): 6 out of 6 and 6/6
[1]; 276 mg/kg single dose intragastric day 10 p.i.
  cure rate (gerbils without trophozoites): 5 out of 6
[1]; increasing single doses 35-276 mg/kg, day 13 p.i.
  intestinal parasite numbers: progressive decrease in parasite numbers
[2]
  time of retained full activity on storage: up to 6 months
[3]
  MBC (maximal blocking concentration) ± SD: 93.8 mmol/mg protein and 93.84 ± 12.8 mmol/mg protein
Plasmodium berghei; 4 daily doses of 8 mg/kg intravenously
  mortality: markedly reduced mortality
Plasmodium berghei; 4 daily doses of 9 mg/kg orally
  mortality: markedly reduced mortality
[4]; 24 h exposure (Figure 6B), read-out: IC50 ± SD
  IC50: 0.322 ± 0.023 mM
[4]; 24 h exposure, read-out: IC50 (mM) ±SD
  IC50: 0.32 ± 0.02 mM
[4]; 24 h exposure
  MLC (mM) ±SD: 0.6 mM (≈ 97.4 µg/mL)
  concentration at which parasite replication was suppressed: 600 µM
[4]; 24 h exposure, listed as Allicin
  MLC (mM) ±SD: 0.600 ± 0.016 mM (≈ 97.4 µg/mL)
[5]; 0.6 mM
  cells at G1 phase: 7.4% and 7.43%
  cells at G2/M phase: 4.4% and 4.44%
  cells at G2 phase: 61.0% and 61.09%
  cells at S phase: 27.03%
[5]; 1.2 mM
  cells at G1 phase: 2.2% and 2.22%
  cells at G2/M phase: 5.7% and 5.72%
  cells at G2 phase: 75.53%
  cells at S phase: 5.7% and 5.72%
[6]
  MLC (mM) ±SD: 1.08 mM (≈ 175 µg/mL)
[6]; listed as Allicin
  MLC (mM) ±SD: 1.088 ± 0.24 mM (≈ 177 µg/mL)
[6]; Giardia duodenalis
  IC50: 369 ± 21 µM
Eimeria tenella
  IC99: 11.1 mM
[7]
  effect on proteolytic bands in zymogram: strongly inhibited
[8]
  MLC (mM) ±SD: 1.285 ± 0.18 mM (≈ 209 µg/mL)
[8]; Giardia duodenalis
  IC50: 536 ± 103 µM
Entamoeba histolytica
  IC60: 500 µM
giardipain-1
  effect on giardipain-1 cytopathic damage in IEC6 monolayers: noticeably blocked these effects
[9]
  oral lethality: 300 mg/kg
